Experiments:
[1] = tested on: Primary human CD34+ cells isolated from mobilized peripheral blood; test: Relative expansive effect (relative cell number), mobilized peripheral blood CD34+ cells in StemSpan SFEM (Example 23); assay type: cell-based
Description: Mobilized peripheral blood was purchased from StemCell Technologies. The blood was mobilized using G-CSF from volunteer donors. Volunteers were administered a maximum of 10 ug/kg/day of granulocyte colony-stimulating factor (G-CSF) for 3-5 days prior to collection. Primary human CD34+ cells were isolated from mobilized peripheral blood leukapheresis samples using positive immunomagnetic separation techniques.
Isolated CD34+ cells were incubated in an in vitro culture media of StemSpan SFEM. When testing the substituted derivatives of 9,10-dihydrophenathrene (+Derivative conditions), two internal controls were used: a positive control (+SF conditions) and a baseline control (i.e, basic conditions (“cytokines only”)). The media components and concentrations used for the compounds tested are described in Table 8, above. The culture also included an antibiotic solution that includes penicillin, streptomycin, and amphotericin B to avoid contamination. Controls were included because the amount of expansion in samples obtained varies from individual to individual.
Cultures were incubated at 3% oxygen (controlled by nitrogen) and 5% CO2. […]
Table 10, below, summarizes the relative expansive effect of Compound 1.013 at the indicated concentration. […] Relative cell number is calculated as described in Example 22.

[2] = tested on: CD34+ cells isolated from donor non-mobilized peripheral blood; test: Titration of SF1670 on CD34+ cells from non-mobilized peripheral blood, flow cytometry (Example 20); assay type: cell-based, human
Source text: CD34+ cells were isolated from donor peripheral blood. Standard ficoll paque layering was used to separate the buffy coat. Cells then undergo negative depletion using biotinylated CD2, CD3, CD4, CD5, CD8, CD1 Ib, CD14, CD16, CD19, CD20, CD45RA, CD56, CD235 (in some examples CD15, CD25 and other lineage specific antibodies may also be used). Cells which bind these antibodies are depleted using streptavidin beads. The depleted cell pool was sorted for CD34+ cells before being placed in cell culture.
(§1) Isolated CD34+ cells were incubated in an in vitro culture media of Alpha MEM without phenol red, 10% (v/v) heat inactivated fetal bovine serum (FBS) and +SF conditions. +SF conditions included the components described in Table 5. The culture also included an antibiotic solution that includes penicillin, streptomycin, and amphotericin B to avoid contamination.
(§2) Cultures were incubated at 3% oxygen (controlled by nitrogen) and 5% CO2.
(§3) Small molecule components were added separately and fresh each time the media needs to be refreshed. Cytokines can be stored together. Media renewal should occur at least every few days.
(§4) On the days indicated one-half of the volume of the cell culture was removed for data analysis (flow cytometry using a BD FACS ARIA II). The culture volume was replenished with fresh media according to the conditions tested. The data reported accounts for the dilution factor introduced in this procedure.

[3] = tested on: hematopoietic stem cells derived from cord blood; test: Culture of cord blood with SF1670, flow cytometry (Example 19); assay type: cell-based, human
Description: A frozen cord blood sample was thawed and gradually brought to room temperature. Thawed cord blood was incubated in an in vitro culture media of Alpha MEM without phenol red, 10% (v/v) heat inactivated fetal bovine serum (FBS). Base Conditions and +SF Conditions further included the components described in Table 4. Each condition tested also included an antibiotic solution that includes penicillin, streptomycin, and amphotericin B to avoid contamination.
as §2, §3, §4

[4] = tested on: CD34+ cells isolated from donor non-mobilized peripheral blood (hematopoietic stem cells); test: Culture of CD34+ cells from non-mobilized peripheral blood with SF1670 or SF1670 and ER50891, flow cytometry (Example 17); assay type: cell-based, human; details: after 7 days in culture, SF1670 250 nM (ER50891 100 nM), compared with Base conditions
Description: CD34+ cells were isolated from donor peripheral blood. Whole blood was centrifuged at 1750×g (the speed of centriguation may vary) for 20 minutes. Plasma was drawn off using a pipette or syringe. Concentrated red blood cell (RBC) layer was drawn off with a pipette or syringe. Residual RBCs were lysed using standard RBC lysis protocols. White blood cell (WBC) layer was washed in PBS and spun down several times at 300 g for 7 minutes to remove platelets and some debris. Cells were pelleted and incubated with unlabeled CD64 antibody. Cells then undergo negative depletion using biotinylated CD2, CD3, CD4, CD5, CD8, CD11b, CD14, CD16, CD19, CD20, CD45RA, CD56, CD235 (in some examples CD15, CD25 and other lineage specific antibodies may also be used). Cells which bind these antibodies are depleted using streptavidin beads. The resultant progenitor enriched cell pool were cultured directly (residual mature cells and late progenitors will be killed off over time in culture) or cell pool can undergo a CD34 or CD133 positive selection to further enrich for the desired cells before culturing.
as §1, with “(FBS). Base Conditions, +SF Conditions,” for “(FBS)”, “+SF/+ER” for “+SF conditions. +SF”, “conditions further” for “conditions”, “2. Each condition tested” for “5. The culture”
as §2, §3, §4

| SMILES | CD133 effect (relative expansive effect, relative cell number) ([1]; 7 days in culture, 1 μM sample compound, mobilized peripheral blood, StemSpan SFEM) | expansive effect on HSCs in culture ([1]; number of cells per well after 7 days, FIG. 18) | expansive effect on the enhancement of hematopoietic stem cells over the control condition (0 nM SF1670) ([2]; SF1670 125 nM, 250 nM and 500 nM, FIG. 5B-5E) | expansion of any cell type (total cells) ([2]; SF1670 1000 nM, FIG. 5A) | expansive effect ([2]; SF1670 1000 nM, days 4 and 7, FIG. 5A-5E) | total number of CD34+ cells ([3]; +SF conditions (SF1670 500 nM) vs Base conditions, FIG. 3B) | total number of CD133+ cells ([3]; +SF conditions (SF1670 500 nM) vs Base conditions, FIG. 3C) | total number of CD90+ cells ([3]; +SF conditions (SF1670 500 nM) vs Base conditions, FIG. 3D) | total number of CD38− cells ([3]; +SF conditions (SF1670 500 nM) vs Base conditions, FIG. 3E) | fold increase in CD34+ cells from day 2 ([3]; SF1670 500 nM, after 16 days in culture, FIG. 4B) | fold increase in CD133+ cells from day 2 ([3]; SF1670 500 nM, after 16 days in culture, FIG. 4C) | fold increase in CD90+ cells from day 2 ([3]; SF1670 500 nM, after 16 days in culture, FIG. 4D) [fold] | fold increase in CD38− cells from day 2 ([3]; SF1670 500 nM, after 16 days in culture, FIG. 4E) [fold] | number of CD34+ cells ([4]; FIG. 1A) | number of CD133+ cells ([4]; FIG. 1B) | number of CD90+ cells ([4]; FIG. 1C) |
| --- | --- | --- | --- | --- | --- | --- | --- | --- | --- | --- | --- | --- | --- | --- | --- | --- |
| O=C1C(=O)c2ccc(O)cc2-c2ccccc21 [Compound 1.013, 3-hydroxyphenanthrene-9,10-dione] | +++ (0.55 ≤ x < 0.9) | positive expansive effect |  |  |  |  |  |  |  |  |  |  |  |  |  |  |
| CC(C)(C)C(=O)Nc1ccc2c(c1)C(=O)C(=O)c1ccccc1-2 [SF1670] |  |  | at least some expansive effect | very little expansion | reduced expansive effect | increase | increase | increase | increase | greater than 50 fold | greater than 50 fold | ~30 | ~5 | increased numbers | increased numbers | increased numbers |

Reference: patent US20200155609A1, “COMPOSITIONS AND METHODS OF MAKING EXPANDED HEMATOPOIETIC STEM CELLS USING PTEN INHIBITORS” (Transfusion Health LLC, priority 2017, published 2020)
